From patent US20150038545A1, “HYDROXYPHENYL PYRROLE COMPOUNDS CONTAINING AN HYDROXAMIC ACID AS HDAC INHIBITORS AND MEDICINAL APPLICATIONS THEREOF” (UNIVERSIDAD DEL PAÍS VASCO, priority 2011, published 2015)

Assays:
SW620 = experiment: Cancer cell growth inhibition (CellTiter-Glo), SW620; format: cell-based; settings: Homo sapiens, SW-620; Colorectal Cancer, SW620, 72 h treatment
Protocol: (§1) Cell culture-based assays were used to evaluate the ability of compounds of the invention to inhibit cancer cell growth.
(§2) Cells were obtained from the American Type Culture Collection (ATCC). Cells were cultured at 37° C. with 5% CO2 in the appropriate growth medium (see table below), and harvested respectively during the logarithmic growth period and counted with hemocytometer. The cell viability was examined by trypan blue exclusion. Cell concentrations were adjusted to 5.56×10^4 cells/ml with respective medium.
(§3) Stock solutions of test compounds and positive drugs Doxorubicin (Zhejiang, Haizheng, China), Cisplatin (Nanjing Zhiyao, China) and Mitomycin (Zhejiang, Haizheng, China) were prepared in dimethyl sulphoxide (DMSO) or PBS at 20 mM.
(§4) In order to determine the IC50 for each compound, experiments were carried out in 96-well plates and the cell lines seeded at a density of 5,000 cells/well. […] All treatments were performed in triplicate. 10 μl of drug solution was added to each well and incubated for 72 hours. At the end of the incubation, 100 μl of the CellTiter-Glo Reagent were added to each well and the contents were mixed for 2 munites on an orbital shaker to induce cell lysis. The plate was incubated at room temperature for 10 minutes to stabilize luminiscent signal, and luminiscent was recorded. […] In order to calculate IC50 values, dose-responsive curves were fitted using nonlinear regression model with a sigmoidal dose response.

U-87MG = experiment: Cancer cell growth inhibition (CellTiter-Glo), U-87MG; format: cell-based, Human; settings: Homo sapiens, Glioblastoma, 72 h treatment
Protocol: as §1, §2, §3, §4

RPMI-8226 = experiment: Cancer cell growth inhibition (CellTiter-Glo), RPMI-8226; format: cell-based, Human; settings: Homo sapiens; Orthotopic Multiple Myeloma, RPMI-8226, 72 h treatment
Protocol: as §1, §2, §3, §4

SK-BR-3 = experiment: Cancer cell growth inhibition (CellTiter-Glo), SK-BR-3; format: cell-based, Human; settings: Homo sapiens; Breast Cancer, SK-BR-3, 72 h treatment
Protocol: as §1, §2, §3, §4

CNE2 = experiment: Cancer cell growth inhibition (CellTiter-Glo), CNE2; format: cell-based, Human; settings: Homo sapiens, CNE-2; Nasopharyngeal, CNE2, 72 h treatment
Protocol: as §1, §2, §3, §4

SK-MES-1 = experiment: Cancer cell growth inhibition (CellTiter-Glo), SK-MES-1; format: cell-based, Human; settings: Homo sapiens; Lung Cancer, SK-MES-1, 72 h treatment
Protocol: as §1, §2, §3, §4

NCI-H460 = experiment: Cancer cell growth inhibition (CellTiter-Glo), NCI-H460; format: cell-based, Human; settings: Homo sapiens; Lung Cancer, NCI-H460, 72 h treatment
Protocol: as §1, §2, §3, §4

786-O = experiment: Cancer cell growth inhibition (CellTiter-Glo), 786-O; format: cell-based, Human; settings: Homo sapiens, 786-0, Kidney Cancer, 72 h treatment
Protocol: as §1, §2, §3, §4

SW480 = experiment: Cancer cell growth inhibition (CellTiter-Glo), SW480; format: cell-based, Human; settings: Homo sapiens; Colorectal Cancer, SW480, 72 h treatment
Protocol: as §1, §2, §3, §4

| IC50 (SW620) [µM] | IC50 (U-87MG) [µM] | IC50 (RPMI-8226) [µM] | IC50 (SK-BR-3) [µM] | IC50 (CNE2) [µM] | IC50 (SK-MES-1) [µM] | IC50 (NCI-H460) [µM] | IC50 (786-O) [µM] | IC50 (SW480) [µM] | SMILES |
| --- | --- | --- | --- | --- | --- | --- | --- | --- | --- |
| 1.31 | 5.67 | 0.7 | 3.49 | 2.77 | 2.88 | 2.4 | 3.28 | 1.73 | O=C(CCCCCNC(=O)c1[nH]c(-c2ccccc2)cc1-c1ccc(O)cc1)NO [Example 1, N-(6-(hydroxyamino)-6-oxohexyl)-3-(4-hydroxyphenyl)-5-phenyl-1H-pyrrole-2-carboxamide] |
| 0.3 | 8.72 | 6.2 | 0.43 | 10.1 | 3.62 | 10.9 | 3.14 | 0.48 | O=C(CCCCCNC(=O)c1[nH]c(-c2ccc(O)cc2)cc1-c1ccoc1)NO [Example 5, 3-(3-furyl)-N-(5-(hydroxycarbamoyl)pentyl)-5-(4-hydroxy-phenyl)-1H-pyrrole-2-carboxamide] |
| 1.48 | 11.8 | 4.47 | 3.37 | 10.1 | 4.8 | 9.41 | 3.51 | 2.12 | O=C(CCCCCNC(=O)c1[nH]c(-c2ccc(O)cc2)cc1-c1ccccc1)NO [Example 2, N-(6-(hydroxyamino)-6-oxohexyl)-5-(4-hydroxyphenyl)-3-phenyl-1H-pyrrole-2-carboxamide] |
| 0.67 | 8.98 | 4.8 | 1.36 | 7.39 | 3.7 | 9.38 | 2.7 | 1.08 | O=C(CCCCCNC(=O)c1[nH]c(-c2ccc(O)cc2)cc1-c1ccsc1)NO [Example 6, N-(5-(hydroxycarbamoyl)pentyl)-5-(4-hydroxyphenyl)-3-(3-thienyl)-1H-pyrrole-2-carboxamide] |
